Data on 5 compounds can be found in US20120270900A1, “NOVEL METHOD OF TREATMENT” (Topo Target A/S, priority 2009, published 2012).

In one data set the test system is myeloma. The following applies: unless nicotinic acid is given 24 hours after the NAMPRTi; Beauparlant et al.; cited from earlier work.
For data set [1] the following is noted: APO866 40 mg/kg i.p. x2/day for 4 days, nicotinic acid 20 mg/kg x1/day p.o. for five days; last treatment day.
For data set [2], the system named is panel of cell lines of different origin. Kind of data set: Clonogenic assay, continuous APO866 treatment, panel of cell lines. In kind it is cell-based. On the procedure: (§1) Clonogenic assay: Cells were incubated with APO866 at different concentrations with or without 100 μM nicotinic acid and seeded out on semi-solid agar matrix with sheep red blood cells and growth medium. Following a 3-week incubation period, the colonies were counted and % survival relative to control (untreated) cells was calculated. IC50 values were calculated on basis of survival at different concentrations of APO866.
Supplement of nicotinic acid to the growth medium can protect against the cytotoxic effects of inhibitors of nicotinamide phosphoribosyltransferase (NAMPRT), including APO866, by synthesizing nicotine adenine dinucleotide (NAD) by an alternative pathway. A cancer cell line, HEPG2, has been shown not to be able to utilize nicotinic acid for NAD synthesis (Cancer Res. 2003 Nov. 1; 63(21):7436-42). We investigated the protective effect of nicotinic acid against APO866 induced cell death in a panel of cell lines of different origin. […] We used continuous treatment with APO866 in a clonogenic assay. Two cell lines, A2780 and NYH were not protected against APO866 when incubated in a medium containing 100 μM nicotinic acid (Table 1). ML-2, HCT-116 and A431 cells display an increase of IC50 values of more than 40-90 fold in nicotinic acid containing medium compared to standard medium. […]

Data set [3] can be described thus: Survival of mice under high dose APO866 with or without oral nicotinic acid. It counts as in vivo. On the procedure:
FIG. 2 illustrates the cumulative survival of mice in response to high dose APO866 treatment. Treatment is 60 mg APO866 twice/day for 4 days. NA=nicotinic acid.

In data set [4] the test system is ovarian cancer cell line A2780. Kind of data set: CellTiterGlo luminescent cell viability assay. It counts as cell-based. The following applies: 3 days treatment, 1 mM nicotinic acid. On the procedure:
FIG. 7 illustrates cell viability in the ovarian cancer cell line A2780 measured by CellTiterGlo® after 3 days of CHS-828 treatment with and without 1 mM nicotinic acid added to the medium.
(§2) CellTiterGlo® luminescent cell viability assay: Cells were plated in opaque 96-well plates (5,000 cells/well) 24 hours before use and then incubated with drug for 72 hours at the indicated concentrations with or without nicotinic acid (Invitrogen) added to the media. The CellTiterGlo® assay (Promega) was performed according to the manufacturer's instructions and bioluminescence was measured. Analysis and determination of IC50 values were performed by Prizm.

In a further data set the test system is PC-3 cells. Kind of data set: LD50 of APO866 in PC-3 cells with and without nicotinic acid. It counts as cell-based.
In a further data set the test system is ML-2 xenografts. Kind of data set: Subcutaneous ML-2 xenograft study. As to the method:
FIG. 5 illustrates the cumulative survival of mice with subcutaneous ML-2 xenografts: Time used for each individual mouse's tumour to reach a size of 800 mm3. The mice were treated i.p. with doses of 15 or 50 mg/kg APO866×2/day in two weekly 4-day cycles combined with vehicle p.o. or 50 mg/kg nicotinic acid (NA). Legend on the figure: The p-values of log-rank analysis comparing the individual groups are shown on the figure.
(§3) Mouse studies: In toxicity and xenograft studies NMRI mice and nude mice, respectively, were treated once daily p.o. with 0.5% HPMC in water or nicotinic acid in the same vehicle combined with two daily injections of APO866 in PBS/saline with 3% HPβCD. The mice were treated in two weekly four-day cycles.
(§4) In xenograft studies, 10^7 cancer cells were injected s.c. in a mixture of PBS/matrigel in nude athymic mice.
(§5) We investigated the in vivo rescue effects of nicotinic acid on nude mice carrying xenograft tumours of A2780 and ML-2 cells. APO866 was given twice daily in weekly four-day cycles for two weeks starting when tumours had reached a size of 100 mm^3.

The next data set deals with primary lymphocytes. The following applies: cited from earlier work.
Another data set deals with A2780 xenografts. Kind of data set: Subcutaneous A2780 xenograft study. On the procedure:
FIG. 4 illustrates the cumulative survival of mice with subcutaneous A2780 xenografts: Time used for each individual mouse's tumour to reach a size of 800 mm3. The mice were treated i.p. with doses of 15 or 50 mg/kg APO866×2/day in two weekly 4-day cycles combined with vehicle p.o. or 50 mg/kg nicotinic acid (NA). Legend on the figure: The p-values of log-rank analysis comparing the individual groups are shown on the figure.
as §3, §4, §5

The test system of the next data set is primary intestinal cells. The note with it: cited from earlier work.
A further data set addresses T1, NAPRT (Homo sapiens, UniProt Q6XQN6).
T1 sequence (Q6XQN6 1-538): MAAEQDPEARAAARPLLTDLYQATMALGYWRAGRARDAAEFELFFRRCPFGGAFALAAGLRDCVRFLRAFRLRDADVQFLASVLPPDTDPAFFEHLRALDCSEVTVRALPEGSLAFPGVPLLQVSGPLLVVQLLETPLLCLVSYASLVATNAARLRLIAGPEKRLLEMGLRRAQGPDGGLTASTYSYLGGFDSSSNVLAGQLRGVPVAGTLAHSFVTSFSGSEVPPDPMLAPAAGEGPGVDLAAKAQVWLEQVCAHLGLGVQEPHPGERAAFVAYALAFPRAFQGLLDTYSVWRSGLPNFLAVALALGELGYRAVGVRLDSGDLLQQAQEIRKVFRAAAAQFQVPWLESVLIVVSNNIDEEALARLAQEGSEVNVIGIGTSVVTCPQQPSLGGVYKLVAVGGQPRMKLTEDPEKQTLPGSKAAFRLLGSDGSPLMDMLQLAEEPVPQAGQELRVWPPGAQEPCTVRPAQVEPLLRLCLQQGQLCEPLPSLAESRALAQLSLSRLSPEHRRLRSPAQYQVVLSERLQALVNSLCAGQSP
The following applies: cited from earlier work.

Data set [5] in a line: Maximally tolerated dose of APO866 in mice. The note with it: mouse, in vivo, intraperitoneal; twice a day; Balb/c nude mice; data not shown.
For the next data set, the system named is leukemic cells. The following applies: WO 1999/053920; cited from earlier work.
The test system of the next data set is ML-2. Kind of data set: Clonogenic assay, APO866 with or without 100 μM nicotinic acid. In kind it is cell-based. On the procedure: as §1
(§6) Supplement of nicotinic acid to the growth medium can protect against the cytotoxic effects of inhibitors of nicotinamide phosphoribosyltransferase (NAMPRT), including APO866, by synthesizing nicotine adenine dinucleotide (NAD) by an alternative pathway. A cancer cell line, HEPG2, has been shown not to be able to utilize nicotinic acid for NAD synthesis (Cancer Res. 2003 Nov. 1; 63(21):7436-42). We investigated the protective effect of nicotinic acid against APO866 induced cell death in a panel of cell lines of different origin. […] We used continuous treatment with APO866 in a clonogenic assay. Two cell lines, A2780 and NYH were not protected against APO866 when incubated in a medium containing 100 μM nicotinic acid (Table 1). ML-2, HCT-116 and A431 cells display an increase of IC50 values of more than 40-90 fold in nicotinic acid containing medium compared to standard medium. Addition of 100 μM nicotinic acid to the medium had in itself no effect on the survival of the cells (data not shown)

A further data set has as its system HCT-116. Described as above. It counts as cell-based. On the procedure:
as §1, §6

For the next data set, the system named is A2780. Described as above. It counts as cell-based. On the procedure:
as §1, §6

A further data set concerns NYH. Described as above. In kind it is cell-based. As to the method:
as §1, §6

Another data set has as its system A431. The description is as above. It counts as cell-based. On the procedure:
as §1, §6

In data set [6] the test system is small cell lung cancer cell line NYH. Kind of data set: CellTiterGlo luminescent cell viability assay. It counts as cell-based. The following applies: 3 days treatment, 1 mM nicotinic acid. As to the method: FIG. 9 illustrates cell viability in the small cell lung cancer cell line NYH measured by CellTiterGlo® after 3 days of compound 1050 treatment with and without 1 mM nicotinic acid added to the medium.
as §2
(In ATP-based viability assays light output follows the ATP content of the culture.)

In data set [7] the test system is colon cancer cell line HCT116. Kind of data set: CellTiterGlo luminescent cell viability assay. The note with it: 3 days treatment, varying concentrations of nicotinic acid. It counts as cell-based. On the procedure: FIG. 8 illustrates cell viability in the colon cancer cell line HCT116 measured by CellTiterGlo® after 3 days of compound 1050 treatment with and without varying concentrations of nicotinic acid added to the medium.
as §2

The mark [8] stands for this setting: increase of IC50 to APO866 with 100 μM nicotinic acid in medium.
The mark [9] stands for this setting: 60 mg/kg APO866 twice daily on four consecutive days, vehicle p.o. (no nicotinic acid).

In the case of `COCCOCCOCCOCCOC(=O)OC[n+]1ccc(N/C(=N/C#N)NCCCCCCOc2ccc(Cl)cc2)cc1.[Cl-]` [GMX1777], the “effect of nicotinic acid on antitumour effect” value in the data set with myeloma was “abrogates the antitumour effect”.

On to `O=C(O)c1cccnc1` [nicotinic acid], for which, in data set [1], the “platelet count upon APO866 treatment, nicotinic acid group compared to control” value is reported as “significantly improved”. Further, the “effect of nicotinic acid in itself on the survival of the cells” value in [2] (100 μM nicotinic acid added to the medium, data not shown) is “no effect”. Moreover, the “protection against APO866-induced death” value in data set [3] (nicotinic acid administered on the same days as APO866) was “protects against death even at four times the normal MTD”.

With `N#CN=C(NCCCCCCOc1ccc(Cl)cc1)Nc1ccncc1` [CHS828], the “rescue by nicotinic acid from cytotoxicity” value in [4] is listed as “minimally rescued”.

As to `O=C(/C=C/c1cccnc1)NCCCCC1CCN(C(=O)c2ccccc2)CC1` [APO866], the LD50 with PC-3 cells (with nicotinic acid (100 μM) present) is 5.5 ± 1.4 nM; with PC-3 cells (without nicotinic acid) it was 4.8 ± 3.0 nM. In the data set with ML-2 xenografts (15 mg/kg APO866 and nicotinic acid, p=0.14), the “survival compared with controls” value is “not significantly different from controls”. In addition, the “tumour growth compared with untreated controls” value in the data set with ML-2 xenografts (50 mg/kg APO866 and nicotinic acid, p=0.002) is listed as “reduced tumour growth”. Moreover, the “effect on tumour size compared with 15 mg/kg APO866 and nicotinic acid” value in the data set on ML-2 xenografts (50 mg/kg APO866 combined with nicotinic acid, p=0.97) is reported as “does not improve the effect on tumour size in a significant way”. The effect on tumours result in the data set on ML-2 xenografts (APO866 only) is “complete elimination of the tumours before day 10”. In the data set with ML-2 xenografts (data not shown), the “body weight change between the groups” value was “No overall differences in body weight change”. Further, in the data set with ML-2 xenografts (same APO866 dose with nicotinic acid), the “anti-proliferative effect with nicotinic acid co-administered” value is “partially negated”. Besides, the “effect of vitamin PP compounds on cytotoxic effect” value with primary lymphocytes and in the data set on primary intestinal cells was “neutralise the cytotoxic effect” in each case. Also, the “increase of lifespan (% ILS, until tumour size of 800 mm3) compared to the control group” value in the data set with A2780 xenografts (15 mg/kg APO866 i.p. twice daily, weekly four-day cycles for two weeks) amounted to 50%. In the data set on A2780 xenografts (15 mg/kg APO866 with 50 mg/kg nicotinic acid), the “anti-proliferative effect with nicotinic acid co-treatment” value is “negates the anti-proliferative effect”. Besides, the “increase in % ILS” value in the data set with A2780 xenografts (50 mg/kg APO866 i.p. and 50 mg/kg nicotinic acid p.o.) is listed as 180%. The “body weight between the groups” value in the data set on A2780 xenografts (during the study, data not shown) is reported as “did not vary significantly”. Further, on NAPRT, the “inhibition of the enzyme NAPRT” value is given as “not inhibited”. The same compound returned an IC50 in [2] (range over the cell lines of the panel, continuous treatment) of 1 to 13 nM. In data set [5], this compound registered an MTD of 15 mg/kg. Moreover, in the data set with leukemic cells, the “effect of vitamin PP compounds on cytotoxicity” value is “neutralise the cytotoxicity”. Besides, the “increase of IC50 values in nicotinic acid containing medium compared to standard medium” value in the data set with ML-2 (100 μM nicotinic acid), in the data set with HCT-116 (100 μM nicotinic acid) and in the data set on A431 (100 μM nicotinic acid) was 40-90 fold in each case. The NA rescue effect result with ML-2 (setting [8]) was “+ (Rescue effect defined as >39-fold increase of IC50 to APO866 treatment)”; with HCT-116 (setting [8]), “+ (Rescue effect defined as >39-fold increase of IC50 to APO866 treatment)”; in the data set with A2780 (setting [8]) it was “− (No rescue effect defined as <2-fold increase in IC50)”; with NYH (setting [8]) it was “− (No rescue effect defined as <2-fold increase in IC50)”; in the data set on A431 (setting [8]), “+ (Rescue effect defined as >39-fold increase of IC50 to APO866 treatment)”. The “protection against APO866 in medium containing nicotinic acid” value in the data set on A2780 (100 μM nicotinic acid) and with NYH (100 μM nicotinic acid) was “not protected” throughout. In addition, the survival of mice result in data set [3] (60 mg/kg APO866 twice daily on four consecutive days combined with 50 mg/kg/day nicotinic acid p.o., until day 26) was “all the mice of the group treated with nicotinic acid survived”. The death of mice entry in data set [3] (setting [9]) is “the majority of the control mice died on day 3 and 4”. The “mice that survive the initial toxicity and recover” value in data set [3] (setting [9]) is reported as 1 of 7.

For `N#C/N=C(\NCCCCCCC(=O)N(Cc1ccccc1)OC1CCCCC1)Nc1ccncc1` [Compound 1050], the results for the “rescue by nicotinic acid from treatment” value in data set [6] and in data set [7] were “not similarly protected” and “can rescue”, respectively.

Usually IC50 stands for the concentration that inhibits the measured activity by half. High values mean a need for much substance, low ones inhibition by little substance. For orientation: MTD means the largest dose that counted as tolerated. High values mean a wide tolerated range, low ones a narrow tolerated range.
